# Experimental data reported in PMC8459971, “Evaluation of the hepatotoxicity of the novel GPR40 (FFAR1) agonist CPL207280 in the rat and monkey” (PLoS ONE, 2021).
# Values joined by “and” are separate entries in the source; they are usually repeats but may differ in a detail not shown here. Equal values may be shown once. Read-outs that look alike come from different tables or passages of the source.
# What was measured:
# HepaRG spheroids = assay: HepaRG 3D spheroids, cell and mitochondrial health markers, 14 days; conditions: for AC50: Homo sapiens, HepaRG
# Description: Hepatic spheroids were formed by seeding HepaRG™ cells into round-bottom ultra-low adhesion 96-well spheroid plates (Corning®) in 3D liver media with 0.5% DMSO, 100 U/mL penicillin, and 100 mg/L streptomycin. Cells were incubated at 37°C and 5% CO2 until spheroid formation and then compound-treated. The test compound was diluted in the vehicle, and serial dilutions were made in a 0.5% vehicle in HepaRG™ induction media. […] L-buthionine sulfoximine was used as positive control for GSH content, whereas rotenone was simultaneously used as a positive control for mitochondrial dysfunction and ATP content. At the end of the incubation period, the cells were loaded with the relevant dye for each cell health marker: DNA structure–Hoescht, GSH content–mBCL, ROS formation–DHE, mitochondrial dysfunction–MitoTracker, and cellular ATP content–CellTiter-Glo®, Promega. The plate was then scanned using an automated confocal fluorescent cellular imager, ArrayScan® XTI (Thermo Scientific Cellomics) at 37°C and 5% CO2. Further, the cellular ATP content was measured using CellTiter-Glo® (Promega, USA).
# [1] = Stability in cryopreserved hepatocytes, monkey; type: in vitro ADME; conditions: for Compound Remaining (% of 0 min): Hepatocyte Stability Monkey, single replicates
# Description: The final incubation volume was 500 μL. Two control compounds (verapamil and donepezil) were included for each microsomal species, along with the appropriate vehicle control. The reactions were terminated by transferring 50 μL of incubate to 100 μL methanol containing an internal standard (metoprolol) at appropriate time points (0, 10, 20, 40, 60, and 120 min for the test compound and 0, 5, 10, 20, 40, and 60 min for the control compounds). The termination plates were centrifuged at 4000 x g at 4°C for 30 min to precipitate the protein. The supernatants were then collected for analysis, and LC-MS/MS was used for detection purposes. The system consisted of an Acquity™ Binary Solvent Manager, Acquity™ 4-position heated column manager, 2777 Ultra High Pressure Autosampler, and a Xevo-TQ MS triple quadrupole mass spectrometer (Waters Ltd., Herts, UK). This process was carried out twice.
# [2] = cited from earlier work
# hepatocytes = conditions: read-out: IC50, hepatocyte toxicity, cited from earlier work
# NTCP = molecular target: T1, NTCP (Homo sapiens, UniProt Q14973); conditions: read-out: Inhibition of NTCP, previously reported IC50; cited from earlier work
# T1 construct: expressed in transfected cells; host or cells: HEK cells
# T1 sequence (Q14973 1-349): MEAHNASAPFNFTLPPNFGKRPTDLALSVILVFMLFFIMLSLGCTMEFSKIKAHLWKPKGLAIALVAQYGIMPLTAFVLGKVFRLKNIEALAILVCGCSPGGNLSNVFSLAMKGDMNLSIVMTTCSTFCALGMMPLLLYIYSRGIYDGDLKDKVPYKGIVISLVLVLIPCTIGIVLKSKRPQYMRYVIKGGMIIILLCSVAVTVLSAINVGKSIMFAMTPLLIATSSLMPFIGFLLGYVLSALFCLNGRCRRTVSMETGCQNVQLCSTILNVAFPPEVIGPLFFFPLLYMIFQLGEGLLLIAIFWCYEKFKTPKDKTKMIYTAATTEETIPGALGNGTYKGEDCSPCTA
# [3] = cited from earlier work; remark: listed apart in the source
# [4] = cryopreserved hepatocytes (suspension), Monkey (Cynomolgus) hepatocytes, mean n = 2
structure (smiles),measurement,setting,value
CC#C[C@@H](CC(=O)O)c1ccc(OCC(C)=C(C)C)cc1 [CPL207280],Cellular ATP Mean Plotted Value,"HepaRG spheroids; CONC 0.0457 uM, TIMEPOINT 336",0.883
same,DNA structure Mean Plotted Value,"HepaRG spheroids; CONC 0.0457 uM, TIMEPOINT 336",1.26
same,Glutathione content Mean Plotted Value,"HepaRG spheroids; CONC 0.0457 uM, TIMEPOINT 336",0.866
same,Mitochondrial mass Mean Plotted Value,"HepaRG spheroids; CONC 0.0457 uM, TIMEPOINT 336",0.982
same,Mitochondrial membrane potential Mean Plotted Value,"HepaRG spheroids; CONC 0.0457 uM, TIMEPOINT 336",1.25
same,Oxidative stress Mean Plotted Value,"HepaRG spheroids; CONC 0.0457 uM, TIMEPOINT 336",1.15
same,Spheroid count Mean Plotted Value,"HepaRG spheroids; CONC 0.0457 uM, TIMEPOINT 336",1
same,Spheroid size Mean Plotted Value,"HepaRG spheroids; CONC 0.0457 uM, TIMEPOINT 336",0.924
same,Cellular ATP Mean Plotted Value,"HepaRG spheroids; CONC 0.137 uM, TIMEPOINT 336",1.01
same,DNA structure Mean Plotted Value,"HepaRG spheroids; CONC 0.137 uM, TIMEPOINT 336",1.14
same,Glutathione content Mean Plotted Value,"HepaRG spheroids; CONC 0.137 uM, TIMEPOINT 336",1.11
same,Mitochondrial mass Mean Plotted Value,"HepaRG spheroids; CONC 0.137 uM, TIMEPOINT 336",0.911
same,Mitochondrial membrane potential Mean Plotted Value,"HepaRG spheroids; CONC 0.137 uM, TIMEPOINT 336",0.948
same,Oxidative stress Mean Plotted Value,"HepaRG spheroids; CONC 0.137 uM, TIMEPOINT 336",1.02
same,Spheroid count Mean Plotted Value,"HepaRG spheroids; CONC 0.137 uM, TIMEPOINT 336",1
same,Spheroid size Mean Plotted Value,"HepaRG spheroids; CONC 0.137 uM, TIMEPOINT 336",0.943
same,Cellular ATP Mean Plotted Value,"HepaRG spheroids; CONC 0.412 uM, TIMEPOINT 336",1.03
same,DNA structure Mean Plotted Value,"HepaRG spheroids; CONC 0.412 uM, TIMEPOINT 336",1.12
same,Glutathione content Mean Plotted Value,"HepaRG spheroids; CONC 0.412 uM, TIMEPOINT 336",1.09
same,Mitochondrial mass Mean Plotted Value,"HepaRG spheroids; CONC 0.412 uM, TIMEPOINT 336",1
same,Mitochondrial membrane potential Mean Plotted Value,"HepaRG spheroids; CONC 0.412 uM, TIMEPOINT 336",0.994
same,Oxidative stress Mean Plotted Value,"HepaRG spheroids; CONC 0.412 uM, TIMEPOINT 336",1.02
same,Spheroid count Mean Plotted Value,"HepaRG spheroids; CONC 0.412 uM, TIMEPOINT 336",1
same,Spheroid size Mean Plotted Value,"HepaRG spheroids; CONC 0.412 uM, TIMEPOINT 336",0.942
same,Cellular ATP Mean Plotted Value,"HepaRG spheroids; CONC 3.7 uM, TIMEPOINT 336",0.907
same,DNA structure Mean Plotted Value,"HepaRG spheroids; CONC 3.7 uM, TIMEPOINT 336",0.692
same,Glutathione content Mean Plotted Value,"HepaRG spheroids; CONC 3.7 uM, TIMEPOINT 336",0.924
same,Mitochondrial mass Mean Plotted Value,"HepaRG spheroids; CONC 3.7 uM, TIMEPOINT 336",0.944
same,Mitochondrial membrane potential Mean Plotted Value,"HepaRG spheroids; CONC 3.7 uM, TIMEPOINT 336",0.773
same,Oxidative stress Mean Plotted Value,"HepaRG spheroids; CONC 3.7 uM, TIMEPOINT 336",1.02
same,Spheroid count Mean Plotted Value,"HepaRG spheroids; CONC 3.7 uM, TIMEPOINT 336",1
same,Spheroid size Mean Plotted Value,"HepaRG spheroids; CONC 3.7 uM, TIMEPOINT 336",0.935
same,Cellular ATP Mean Plotted Value,"HepaRG spheroids; CONC 33.3 uM, TIMEPOINT 336",0.845
same,DNA structure Mean Plotted Value,"HepaRG spheroids; CONC 33.3 uM, TIMEPOINT 336",0.889
same,Glutathione content Mean Plotted Value,"HepaRG spheroids; CONC 33.3 uM, TIMEPOINT 336",0.907
same,Mitochondrial mass Mean Plotted Value,"HepaRG spheroids; CONC 33.3 uM, TIMEPOINT 336",0.989
same,Mitochondrial membrane potential Mean Plotted Value,"HepaRG spheroids; CONC 33.3 uM, TIMEPOINT 336",0.908
same,Oxidative stress Mean Plotted Value,"HepaRG spheroids; CONC 33.3 uM, TIMEPOINT 336",1.13
same,Spheroid count Mean Plotted Value,"HepaRG spheroids; CONC 33.3 uM, TIMEPOINT 336",1
same,Spheroid size Mean Plotted Value,"HepaRG spheroids; CONC 33.3 uM, TIMEPOINT 336",0.953
same,Cellular ATP Mean Plotted Value,"HepaRG spheroids; CONC 100 uM, TIMEPOINT 336",0.491
same,DNA structure Mean Plotted Value,"HepaRG spheroids; CONC 100 uM, TIMEPOINT 336",0.692
same,Glutathione content Mean Plotted Value,"HepaRG spheroids; CONC 100 uM, TIMEPOINT 336",0.767
same,Mitochondrial mass Mean Plotted Value,"HepaRG spheroids; CONC 100 uM, TIMEPOINT 336",0.865
same,Mitochondrial membrane potential Mean Plotted Value,"HepaRG spheroids; CONC 100 uM, TIMEPOINT 336",0.94
same,Oxidative stress Mean Plotted Value,"HepaRG spheroids; CONC 100 uM, TIMEPOINT 336",1.13
same,Spheroid count Mean Plotted Value,"HepaRG spheroids; CONC 100 uM, TIMEPOINT 336",1
same,Spheroid size Mean Plotted Value,"HepaRG spheroids; CONC 100 uM, TIMEPOINT 336",0.861
same,Cellular ATP MEC,"HepaRG spheroids; HepaRG spheroid, TIMEPOINT 336",24.8 (NS) uM
same,Cellular ATP MR (% @ concentration),"HepaRG spheroids; HepaRG spheroid, TIMEPOINT 336, at the concentration (uM) given",48%
same,Cellular ATP MR,"HepaRG spheroids; HepaRG spheroid, TIMEPOINT 336, plotted value at the concentration given",0.491
same,AC50,"HepaRG spheroids; 336 h, read-out: Estimated AC50 (95% CI), Cellular ATP",> 100 µM
same,AC50,"HepaRG spheroids; 336 h, read-out: Estimated AC50 (95% CI), DNA structure",> 100 µM
same,AC50,"HepaRG spheroids; 336 h, read-out: Estimated AC50 (95% CI), Glutathione content",> 100 µM
same,AC50,"HepaRG spheroids; 336 h, read-out: Estimated AC50 (95% CI), Mitochondrial mass",> 100 µM
same,AC50,"HepaRG spheroids; 336 h, read-out: Estimated AC50 (95% CI), Mitochondrial membrane potential",> 100 µM
same,AC50,"HepaRG spheroids; 336 h, read-out: Estimated AC50 (95% CI), Oxidative stress",> 100 µM
same,AC50,"HepaRG spheroids; 336 h, read-out: Estimated AC50 (95% CI), Spheroid count",> 100 µM
same,AC50,"HepaRG spheroids; 336 h, read-out: Estimated AC50 (95% CI), Spheroid size",> 100 µM
same,AC50,HepaRG spheroids; read-out: DNA structure AC50,> 100 µM
same,AC50,HepaRG spheroids; read-out: Glutathione content AC50,> 100 µM
same,AC50,HepaRG spheroids; read-out: Mitochondrial mass AC50,> 100 µM
same,AC50,HepaRG spheroids; read-out: Mitochondrial membrane potential AC50,> 100 µM
same,AC50,HepaRG spheroids; read-out: Oxidative stress AC50,> 100 µM
same,AC50,HepaRG spheroids; read-out: Spheroid count AC50,> 100 µM
same,AC50,HepaRG spheroids; read-out: Spheroid size AC50,> 100 µM
same,Mitochondria Injury,HepaRG spheroids; summary comparison CPL207280 vs TAK-875,<
same,Compound Remaining (% of 0 min),[1]; 0 min,100 % of 0 min
same,Compound Remaining (% of 0 min),[1]; 10 min,65.3 % of 0 min and 63.2 % of 0 min
same,Compound Remaining (% of 0 min),[1]; 20 min,38.4 % of 0 min and 39.7 % of 0 min
same,Compound Remaining (% of 0 min),[1]; 40 min,17.5 % of 0 min and 19.5 % of 0 min
same,Compound Remaining (% of 0 min),[1]; 60 min,8.86 % of 0 min and 11.4 % of 0 min
same,Compound Remaining (% of 0 min),[1]; 120 min,8.94 % of 0 min and 8.99 % of 0 min
same,half-life at 3 μM,[1]; [4],17 min
same,microsomal CLint at 3 μM,[1]; [4],81.4 µL/min/mg
"Cc1cc(OCCCS(C)(=O)=O)cc(C)c1-c1cccc(COc2ccc3c(c2)OC[C@H]3CC(=O)O)c1 [TAK-875, fasiglifam, reference compound]",plasma protein binding (PPB),[2],> 99.4%
same,IC50,hepatocytes; time of incubation 24 h,68 µM
same,IC50,hepatocytes; time of incubation 48 h,56 µM
same,IC50,NTCP,4.6 µM
same,long exposure in humans,[3],approximately 30 h
